The values below come from patent US11524955B2, “2,4-diamino-pyrimidine compounds and method for making and using the compounds” (Rigel Pharmaceuticals, Inc., priority 2016, dated 2022).

The subject of experiment [1] is IL-23, THP1 cells. The experiment is described as follows: IL-23 assay, THP1 cells primed with IFNg, LPS stimulated, ELISA. The settings on record: Homo sapiens, THP-1. Format: cell-based. The method, then: (§1) IL-23 assays: THP1 cells or human primary monocyte-derived dendritic cells (DC) were primed overnight with IFNg. Following one hour preincubation with compound, cells were stimulated overnight with LPS. IL-23 released into the media was quantitated by ELISA.
(In general: In an ELISA, binding on a coated surface is turned into a signal by an enzyme label.)

The target in experiment [2] is T1, TAK1 (Homo sapiens, UniProt O43318).
T1 sequence (O43318 1-303 limits assumed): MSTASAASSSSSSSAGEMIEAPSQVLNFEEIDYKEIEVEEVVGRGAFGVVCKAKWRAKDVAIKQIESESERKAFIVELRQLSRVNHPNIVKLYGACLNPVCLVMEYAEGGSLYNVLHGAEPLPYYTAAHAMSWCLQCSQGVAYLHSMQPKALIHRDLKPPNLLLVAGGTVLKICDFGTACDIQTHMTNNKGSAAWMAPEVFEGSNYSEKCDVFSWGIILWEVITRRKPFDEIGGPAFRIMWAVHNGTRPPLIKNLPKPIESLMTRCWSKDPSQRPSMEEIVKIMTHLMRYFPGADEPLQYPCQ
The experiment is described as follows: TAK1 biochemical assay, ADP-Glo kinase assay. The method, then:
(§2) IRAK4 and TAK1 biochemical assays: kinase activity was measured by ADP-Glo kinase assay (Promega).

Experiment [3] relates to IL-23, dendritic cells. Put plainly: IL-23 assay, human primary monocyte-derived dendritic cells, LPS stimulated, ELISA. Format: cell-based. The settings on record: Dendritic cell. The method, then:
as §1

Experiment [4] has as its target T2, IRAK4 (Homo sapiens, UniProt Q9NWZ3).
T2 sequence (Q9NWZ3 1-460): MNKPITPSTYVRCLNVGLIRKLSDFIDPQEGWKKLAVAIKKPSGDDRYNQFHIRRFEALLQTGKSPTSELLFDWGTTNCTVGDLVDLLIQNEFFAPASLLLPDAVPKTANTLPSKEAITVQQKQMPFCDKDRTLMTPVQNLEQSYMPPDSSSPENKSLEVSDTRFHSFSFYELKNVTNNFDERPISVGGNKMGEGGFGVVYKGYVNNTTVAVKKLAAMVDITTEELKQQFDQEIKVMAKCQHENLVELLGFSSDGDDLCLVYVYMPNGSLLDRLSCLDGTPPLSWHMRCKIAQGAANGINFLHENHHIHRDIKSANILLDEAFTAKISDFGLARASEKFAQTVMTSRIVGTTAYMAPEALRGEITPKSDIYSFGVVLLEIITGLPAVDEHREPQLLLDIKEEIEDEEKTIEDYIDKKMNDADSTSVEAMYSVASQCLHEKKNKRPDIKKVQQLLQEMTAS
Put plainly: IRAK4 biochemical assay, ADP-Glo kinase assay. As to conditions: for Selectivity (TAK1/IRAK4): ratio of TAK1 and IRAK4 IC50. The method, then:
as §2
(ADP-Glo turns the ADP formed in a reaction into a luminescent signal.)

Experiment [5] deals with IL-8, HUVEC. The experiment is described as follows: IL-8 assay, HUVEC, ELISA. The settings on record: for pIC50: Homo sapiens. Format: cell-based, human.
Experiment [6] relates to IL-6, HUVEC. Put plainly: IL-6 assay, HUVEC, ELISA. Format: cell-based, human. The settings on record: for pIC50: Homo sapiens.
The mark [7] stands for this setting: THP1 cells, IFNy primed, LPS stimulated, 10 pt, read-out: IL23-p19 ELISA, THP1-IFNy, LPS, 10 pt.
Where [8] appears, read: read-out: IL23 (LPS induced) IC50.
[9] abbreviates: LPS stimulated, 10 pt, read-out: IL23-P19, ELISA, Dendritic, LPS, 10 pt.
Setting [10] is: THP cells, LPS, read-out: IL23 (THP, LPS) IC50.
The mark [11] stands for this setting: read-out: IL8 (HUVEC, IL-1β) IC50.
Where [12] appears, read: read-out: IL8 (HUVEC, LPS) IC50.
The mark [13] stands for this setting: read-out: IL8 (HUVEC, TNFα) IC50.
Setting [14] is: read-out: IL6 (HUVEC, IL-1β) IC50.
[15] abbreviates: read-out: IL6 (HUVEC, LPS) IC50.
Setting [16] is: read-out: IL6 (HUVEC, TNFα) IC50.
Setting [17] is: LPS, read-out: IL23 (Dentritic Cells, LPS) IC50.

pIC50: −log10 of the molar value. Read-outs that look alike come from different tables or passages of the source. A value given as a limit tells only on which side of the number the result lay.

Turning to `NC(=O)[C@@H]1[C@H](Nc2nc(Nc3cccc(C(=O)N4CCCC4)c3)ncc2C2CC2)[C@H]2C=C[C@@H]1C2` [Compound 6, (1S,2S,3R,4R)-3-((5-cyclopropyl-2-((3-(pyrrolidine-1-carbonyl)phenyl)amino)pyrimidin-4-yl)amino)bicyclo[2.2.1] hept-5-ene-2-carboxamide], the pIC50 in experiment [1] (setting [7]) was greater than 7.00; in experiment [1] (setting [8]), 7.05; in experiment [2] it was 7.96; in experiment [3] (setting [9]) it was greater than 7.00; in experiment [4] it was 8.22.

For the compound `NC(=O)[C@@H]1[C@H](Nc2nc(Nc3cccc(C(=O)N4CCCC4)c3)ncc2-c2ccoc2)[C@H]2C=C[C@@H]1C2` [Compound 7, (1S,2S,3R,4R)-3-((5-(furan-3-yl)-2-((3-(pyrrolidine-1-carbonyl)phenyl)amino)pyrimidin-4-yl)amino)bicyclo[2.2.1] hept-5-ene-2-carboxamide], the pIC50 in experiment [1] (setting [7]) was greater than 7.00; in experiment [1] (setting [8]), 7.40; in experiment [2] it was 7.96; in experiment [3] (setting [9]), greater than 7.00; in experiment [4], 8.70.

Regarding `NC(=O)[C@@H]1[C@H](Nc2nc(Nc3cccc(C(=O)N4CCCC4)c3)ncc2-c2ccccc2)[C@H]2C=C[C@@H]1C2` [Compound 8, (1S,2S,3R,4R)-3-((5-phenyl-2-((3 (pyrrolidine-1-carbonyl)phenyl)amino)pyrimidin-4-yl)amino)bicyclo[2.2.1] hept-5-ene-2-carboxamide], the pIC50 was greater than 6.60 in experiment [1] (setting [7]); 6.66 in experiment [1] (setting [8]); 6.78 in experiment [2]; greater than 6.00 in experiment [3] (setting [9]); 8.00 in experiment [4].

Take `NC(=O)[C@@H]1[C@H](Nc2nc(Nc3cccc(C(=O)N4CCCC4)c3)ncc2-c2ccncc2)[C@H]2C=C[C@@H]1C2` [Compound 9, (1S,2S,3R,4R)-3-((5-(pyridin-4-yl)-2-((3-(pyrrolidine-1-carbonyl)phenyl)amino)pyrimidin-4-yl)amino)bicyclo[2.2.1] hept-5-ene-2-carboxamide]: the pIC50 in experiment [1] (setting [7]) is greater than 6.60; in experiment [1] (setting [8]) it was 6.89; in experiment [2], 7.62; in experiment [3] (setting [9]), greater than 6.60; in experiment [4], 8.40. In experiment [4], the “Selectivity (TAK1/IRAK4)” value stood at 7.

With `NC(=O)[C@@H]1[C@H](Nc2nc(Nc3cccc(C(=O)N4CCCC4)c3)ncc2-c2cccc(F)c2)[C@H]2C=C[C@@H]1C2` [Compound 11, (1S,2S,3R,4R)-3-((5-(3-fluorophenyl)-2-((3-(pyrrolidine-1-carbonyl)phenyl)amino)pyrimidin-4-yl)amino)bicyclo[2.2.1] hept-5-ene-2-carboxamide], the pIC50 in experiment [1] (setting [7]) was greater than 6.60; in experiment [1] (setting [10]), 6.89; in experiment [1] (setting [8]), 6.89; in experiment [5] (setting [11]) it was 6.51; in experiment [5] (setting [12]) it was 6.02; in experiment [5] (setting [13]) it was 5.22. Moreover, the pIC50 was 6.97 in experiment [2]; 6.85 in experiment [6] (setting [14]); 6.89 in experiment [6] (setting [15]); 5.77 in experiment [6] (setting [16]); greater than 7.00 in experiment [3] (setting [9]); 7.15 in experiment [3] (setting [17]). In addition, the pIC50 in experiment [4] is 8.22. Besides, in experiment [5] (ratio TNFα/IL-1β), the “Selectivity IL8 (TNFα/IL-1β)” value was 18. In experiment [5] (ratio TNFα/LPS), the “Selectivity IL8 (TNFα/LPS)” value came out at 6. Further, in experiment [6] (ratio TNFα/IL-1β), the “Selectivity IL6 (TNFα/IL-1β)” value is reported as 12. Besides, the “Selectivity IL6 (TNFα/LPS)” value in experiment [6] (ratio TNFα/LPS) was 13. The “Selectivity (TAK1/IRAK4)” value in experiment [4] is reported as 17.

`NC(=O)[C@@H]1[C@H](Nc2nc(Nc3cccc(C(=O)N4CCCC4)c3)ncc2-c2ccc(F)cc2)[C@H]2C=C[C@@H]1C2` [Compound 12, (1S,2S,3R,4R)-3-((5-(4-fluorophenyl)-2-((3 (pyrrolidine-1-carbonyl)phenyl)amino)pyrimidin-4-yl)amino)bicyclo[2.2.1] hept-5-ene-2-carboxamide]: the pIC50 in experiment [1] (setting [7]) is greater than 6.00; in experiment [1] (setting [8]) it was 6.34; in experiment [2], 6.17; in experiment [3] (setting [9]), less than 6.00; in experiment [4] it was 7.72.

On to `N#Cc1cccc(-c2cnc(Nc3cccc(C(=O)N4CCCC4)c3)nc2N[C@H]2[C@@H](C(N)=O)[C@@H]3C=C[C@H]2C3)c1` [Compound 13, (1S,2S,3R,4R)-3-((5-(3-cyanophenyl)-2-((3-(pyrrolidine-1-carbonyl)phenyl)amino)pyrimidin-4-yl)amino)bicyclo[2.2.1] hept-5-ene-2-carboxamide], for which the pIC50 in experiment [1] (setting [7]) was greater than 6.00; in experiment [1] (setting [8]) it was 6.55; in experiment [2], 6.98; in experiment [3] (setting [9]), greater than 6.00; in experiment [4], 7.89.

Regarding `N#Cc1ccc(-c2cnc(Nc3cccc(C(=O)N4CCCC4)c3)nc2N[C@H]2[C@@H](C(N)=O)[C@@H]3C=C[C@H]2C3)cc1` [Compound 14, (1S,2S,3R,4R)-3-((5-(4-cyanophenyl)-2-((3-(pyrrolidine-1-carbonyl)phenyl)amino)pyrimidin-4-yl)amino)bicyclo[2.2.1] hept-5-ene-2-carboxamide], the pIC50 in experiment [1] (setting [7]) is greater than 6.60; in experiment [1] (setting [8]) it was 6.72; in experiment [2], 5.80; in experiment [3] (setting [9]), greater than 6.00; in experiment [4], 8.05.

Regarding `NC(=O)[C@@H]1[C@H](Nc2nc(Nc3cccc(C(=O)N4CCCC4)c3)ncc2-c2ccnc(F)c2)[C@H]2C=C[C@@H]1C2` [Compound 16, (1S,2S,3R,4R)-3-((5-(2-fluoropyridin-4-yl)-2-((3-(pyrrolidine-1-carbonyl)phenyl)amino)pyrimidin-4-yl)amino)bicyclo[2.2.1] hept-5-ene-2-carboxamide], the pIC50 in experiment [1] (setting [7]) is greater than 7.00; in experiment [1] (setting [10]) it was 7.00; in experiment [1] (setting [8]) it was 7.00; in experiment [5] (setting [11]), 6.60; in experiment [5] (setting [12]), 6.00; in experiment [5] (setting [13]), 5.52. Further, the pIC50 is 7.77 in experiment [2]; 6.96 in experiment [6] (setting [14]); 6.92 in experiment [6] (setting [15]); 5.92 in experiment [6] (setting [16]); greater than 6.60 in experiment [3] (setting [9]); 6.96 in experiment [3] (setting [17]). In experiment [4], this compound had a pIC50 of 8.52.
